# Assay results from patent US8546524B2, “Smoothened polypeptides and methods of use” (The United States of America, as represented by the …, priority 2006, dated 2013).
# No end group written: not given here. *: point of attachment. Myristoyl = CCCCCCCCCCCCCC(=O)*
# Key:
# SK-Mel2 melanoma cells = type: cell-based; conditions: for IC50: MTT assay, SK-Mel2 melanoma cells, 48 hour exposure, Table 4; for inhibitory activity on SK-Mel2 melanoma cells: 48 hours of exposure, second intracellular loop peptides, comment on Table 4; for inhibition of proliferation of SK-Mel2 cells: 60 hours exposure, FIG. 6; for inhibitory activity of third loop peptides: comment on Table 5
# Procedure: (§1) DU145 prostate cancer cells, PC3 prostate cancer cells, MCF7 breast cancer cells, or Mel-SK-2 melanoma cells (American Type Culture Collection, Manassas, Va.) are inoculated in 96 well plates at 200-400 cells/well density in DMEM medium containing 10% fetal bovine serum and allowed to attach for 24 hours. Cell suspension of 100 μl is used for each well. Polypeptides in 100 μl medium at 2× concentration are added the next day and kept in the CO2 incubator for 48 hours While the polypeptides are added at a final concentration between 1 nM and 10 μM, assays are performed on extra reference plates to determine the cell population density at time 0 (T0). The cells are stained with Promega Non-Radioactive Cell Proliferation Assay Kit (MTT) according to manufacture's protocol. The absorbance of the wells is determined at 544 nm by a FLUOstar/POLARstar® Galaxy MicroplateReader (BMG Labtechnologies GmbH, Germany). The assays are performed on control (C) and test (T) cells. Cellular responses are calculated from the data using the following formula: 100×[(T−T0)/(C−T0)] for T>T0 and 100×[(T−T0)/T0] for T<T0.
# (§2) Polypeptides based on the second or third intracellular loop of SMO (SMOi2 or i3 polypeptides) (as shown in Table 1) are synthesized as described in Example 1 and are tested as described in Example 2 using MCF-7 breast cancer cells or SK-Mel2 melanoma cells. The IC50 of each peptide as determined by the MTT assay in SK-Mel2 melanoma cells after 48 hour exposure to the peptide is shown in Tables 4 and 5.
# Peptides SMOi2-18 and SMOi2-21 are made as essentially described in Example 1 and tested as described in Example 2 using SK-Mel2 cells. Cells are exposed to polypeptides or peptidomimetics for 60 hours.
# [1] = system: gastric adenocarcinoma cells; assay: Growth inhibition of gastric adenocarcinoma cells (viable cell mass); type: cell-based; conditions: 5 or 10 μM, FIG. 2
# [2] = system: MCF-7 breast cancer cells; assay: MTT growth inhibition assay in MCF-7 breast cancer cells; type: cell-based; conditions: 48-hour treatment, FIG. 1 / FIG. 3
# Procedure: as §1, with “The cells are stained with Promega Non-Radioactive Cell Proliferation Assay Kit (MTT) according to manufacture's protocol.” left out, “The assays are performed on control (C) and test (T) cells.” left out, “T<T0. […]” for “T<T0.”
# as §2
# [3] = Critical micelle concentration by WMC-77 fluorescence; type: physicochemical; conditions: deionized water, 25° C., WMC-77 0.4 μM
# Source text: To monitor the formation of hydrophobic nanoparticles, a fluorescing imidazoacridone compound WMC-77 (5-{3-[4-(aminopropyl)-piperazin-1-yl]-propylamino}-2,10b-diaza-aceanthrylen-6-one) is used (Tarasov et al., Photochem. Photobiol. 78: 313-322 (2003)). Compounds like WMC-77 tend to enhance their intrinsic fluorescence dramatically when entering an amphiphilic environment of biological macromolecules like DNA (Tarasova et al., 2003, supra) or hydrophobic core of typical micelles (Tarasov et al., Photochem. Photobiol. 70: 568-578 (1999)). […] Atmospheric oxygen quenching is found to be unimportant, since similar values of fluorescence intensity from BIAs are obtained before and after nitrogen purging. […] Uncorrected fluorescence emission spectra are obtained at 25° C. on a Single Photon Counting Spectrofluorometer FLUOROMAX®-2 (Horiba Jobin Yvon, Edison, N.J.). […]
# The increase of peptide/fluorophore ratio causes the permanent increase of WMC-77 fluorescence emission intensity, leveling of at ˜2 μM. The changes in the fluorescence signal are similar to those observed during transfer of imidazoacridones from aqueous to non-polar media such as organic solvents (Tarasov et al., 1999, supra), to the cores of classic surfactant micelles (Tarasov et al., 1999, supra) or upon binding to DNA (Tarasov et al., 2003, supra). […]
substance,measurement,setting,value
Ac-AKFSTHWAYTLK-εPal (all D-) [SMOi2-17],IC50,SK-Mel2 melanoma cells,0.4 ± 0.1 nM
PalLTYAWHTSFKAL (All D) [SMOi2-24],inhibitory activity on SK-Mel2 melanoma cells,SK-Mel2 melanoma cells,most potent inhibitors
Ac-KFSTHWAYTLK- εPal (all D-) [SMOi2-20],inhibitory activity on SK-Mel2 melanoma cells,SK-Mel2 melanoma cells,most potent inhibitors
same,IC50,SK-Mel2 melanoma cells,0.3 ± 0.1 nM
Ac-LTYAWHTSFKAL [SMOi2-9],inhibitory activity on SK-Mel2 melanoma cells,SK-Mel2 melanoma cells,significantly reduces the inhibitory activity
Pal-LTYABpaHTSFKAL [SMOi2-18],inhibitory activity on SK-Mel2 melanoma cells,SK-Mel2 melanoma cells,fairly active
same,inhibition of proliferation of SK-Mel2 cells,SK-Mel2 melanoma cells,"even more potent than that of the polypeptide counterpart, SMOi2-8"
Myristoyl-LTYAWHTSFKAL [SMOi2-26],inhibitory activity on SK-Mel2 melanoma cells,SK-Mel2 melanoma cells,most potent inhibitors
same,potency relative to palmitoyl peptide (fold less potent),SK-Mel2 melanoma cells; myristoyl instead of palmitoyl residue,2.5 fold
Pal-LTYAWHTSFKA [SMOi2-11],inhibitory activity on SK-Mel2 melanoma cells,SK-Mel2 melanoma cells,most potent inhibitors
Pal-TYAWHTSFKAL [SMOi2-10],inhibitory activity on SK-Mel2 melanoma cells,SK-Mel2 melanoma cells,potent inhibitors
PalRGVMTLFSIKSNHPGLLSEKAASKINETMLR [SMO i3-1],inhibition of growth of gastric adenocarcinoma cells compared with cyclopamine,[1],as well or better than cyclopamine
same,inhibitory activity of third loop peptides,SK-Mel2 melanoma cells,among the most potent polypeptides tested
same,inhibition of growth of MCF-7 cells,[2],most significant effect on cell growth
Pal-LTYAWHTSFKALGTTYQP [SMOi2-6],inhibitory activity on SK-Mel2 melanoma cells,SK-Mel2 melanoma cells,potent inhibitors
Ac-LTYAWHTSFKALGTTYQPLSGKTSYK- ε-Pal [SMOi2-4],IC50,SK-Mel2 melanoma cells,1000 ± 100 nM
Pal-LTYAWHTSFKALGTTYQPLSGKTSYK- ε-Pal [SMOi2-23],inhibitory activity on SK-Mel2 melanoma cells,SK-Mel2 melanoma cells,most potent inhibitors
PalRGVMTLFSIKSNHPGLLS [SMO i3-8],inhibitory activity of third loop peptides,SK-Mel2 melanoma cells,among the most potent polypeptides tested
Pal-LTYAWHTSFKAL [SMOi2-8],critical micelle concentration,[3],0.5 to 1 µM
same,inhibitory activity on SK-Mel2 melanoma cells,SK-Mel2 melanoma cells,most potent inhibitors
Ac-GTTYQPLSGKTSYK-εPal [SMOi2-7],inhibitory activity on SK-Mel2 melanoma cells,SK-Mel2 melanoma cells,potent inhibitors
Pal-LTYAWHTSFK [SMOi2-12],inhibitory activity on SK-Mel2 melanoma cells,SK-Mel2 melanoma cells,most potent inhibitors
WFVVLTYAWHTSFKAL [SMOi2-15],inhibitory activity on SK-Mel2 melanoma cells,SK-Mel2 melanoma cells,does not overcome the loss of activity
same,IC50,SK-Mel2 melanoma cells,> 5000 nM
PalLFSIKSNHPGLLSEKAASKINETMLR [SMO i3-4],inhibitory activity of third loop peptides,SK-Mel2 melanoma cells,significantly less active
VWFVVLTYAWHTSFKAL [SMOi2-14],inhibitory activity on SK-Mel2 melanoma cells,SK-Mel2 melanoma cells,does not overcome the loss of activity
same,IC50,SK-Mel2 melanoma cells,> 5000 nM
Pal-LTYABpaHTSFKAL-Hcy-Biotin [SMOi2-21],inhibitory activity on SK-Mel2 melanoma cells,SK-Mel2 melanoma cells,totally abolishes the activity
same,inhibition of proliferation of SK-Mel2 cells,SK-Mel2 melanoma cells,"even more potent than that of the polypeptide counterpart, SMOi2-8"
SEKAASKINETMLRK-ε-Pal [SMO i3-12],inhibitory activity of third loop peptides,SK-Mel2 melanoma cells,among the most potent polypeptides tested
Ac-YAWHTSFKALGTTYQPLSGKTSYK- εPal [SMOi2-5],IC50,SK-Mel2 melanoma cells,1000 ± 100 nM
Ac-LLSEKAASKINETMLRK-[…]ε-Pal [SMO i3-6],inhibitory activity of third loop peptides,SK-Mel2 melanoma cells,among the most potent polypeptides tested
PalRGVMTLFSIKSNHPGLLSEKA [SMO i3-2],inhibitory activity of third loop peptides,SK-Mel2 melanoma cells,among the most potent polypeptides tested
Pal-LTYAWHTSFKALGTTYQPLSGKYSY [SMOi2-1],inhibition of growth of gastric adenocarcinoma cells compared with cyclopamine,[1],as well or better than cyclopamine
same,inhibition of growth of MCF-7 cells,[2],inhibit the growth of MCF-7 cells
Ac-LAKFSTHWAYTLK-ε-Pal (all D-) [SMOi2-16],IC50,SK-Mel2 melanoma cells,6 ± 0.5 nM
